Square brackets hold non-standard residues; d marks the D form. Ends that are not written are not given here. βAla = NCCC(=O)O
Test system: immunoglobulins from human plasma
Assay: Affinity chromatography of human plasma on peptide-sepharose matrices, binding capacity for immunoglobulins
Conditions: 6 volume fractions per column volume, 80 cm/h, elution pH 2.8
Method: For immobilization to a solid phase, the peptides were dissolved in coupling buffer (30% (v/v) acetonitrile, 0.5 M NaCl, 0.1 M NaHCO3, pH 8.3) to a concentration of 1 mg/ml and mixed with washed and CNBr-preactivated sepharose 4B at a volume ratio of 10:1. After completion of the coupling reaction, the peptide. matrices were washed with coupling buffer, and the excess CNBr groups were inactivated by incubation of the matrix in Tris buffer (100 mM Tris-HCl, 500 mM NaCl, pH 8.0).
The peptide loadings of the matrices were determined by photometry (A280 nm) by establishing the difference between the peptide mass employed before coupling and the non-immobilized peptide mass after coupling.
The peptide matrices were tested by means of affinity chromatography for their binding capacity and binding specificity for immunoglobulins with human plasma as a sample. Thus, 6 volume fractions of human plasma as the sample was passed through 1 column volume fraction of peptide matrix at a linear flow rate of 80 cm/h.
Prior to sample application, the affinity-chromatographic column was equilibrated with PBS, pH 7.2. […]
The determination of the concentration of the eluted protein was effected by photometric measurement of the adsorption at 280 nm. The immunoglobulin concentration was calculated therefrom with ε280 nm=1.35 cm^2/mg for IgG.

Substance: acetyl-D-S-A-W-H-L-G-E-L-V-W-C-T-((βA)(βA)K) (Ac-DSAWHLGELVWCT[βAla][βAla]K; also: immobilized on sepharose 4B) [Peptide matrix A1]
- Rel. capacity: mg of bound protein/mg of peptide matrix loading: 0.53 mg/mg
- Volume capacity: mg of bound protein/ml of peptide matrix: 4.70 mg/mL
